BigSolDB 2.1

Nc1cccc(S(=O)(=O)c2cccc(N)c2)c1
solubility (mole fraction)
Settings	283.15 K	288.15 K	293.15 K	298.15 K	303.15 K	308.15 K	313.15 K	318.15 K	323.15 K	328.15 K
in 1,4-dioxane	0.00411	0.00462	0.00538	0.00652	0.0083	0.0102	0.0123	0.0147	0.0169	0.0194
in DMF	0.0869	0.0916	0.0989	0.11	0.12	0.132	0.146	0.162	0.181	0.2
in acetonitrile	0.00609	0.00709	0.0087	0.0105	0.0127	0.0151	0.0182	0.0225	0.0272	0.033
in cyclohexane	2.7e-06	3.6e-06	5.1e-06	7.7e-06	1.09e-05	1.51e-05	2.03e-05	2.78e-05	3.7e-05	4.86e-05
in ethanol	0.00237	0.00256	0.00297	0.00349	0.00415	0.00492	0.00574	0.00661	0.00738	0.00837
in ethyl acetate	0.0146	0.0162	0.0184	0.021	0.0243	0.0278	0.0321	0.037	0.0424	0.0485
in ethylene glycol	0.00458	0.00515	0.00595	0.00701	0.00843	0.0101	0.012	0.0144	0.0168	0.0194
in isobutanol	0.000586	0.000665	0.000784	0.000952	0.00115	0.00137	0.00166	0.002	0.00234	0.00271
in isopropanol	0.00106	0.00121	0.00148	0.00196	0.00258	0.00326	0.00406	0.005	0.00611	0.00731
in methanol	0.00319	0.00351	0.00397	0.00482	0.00604	0.00744	0.00905	0.0107	0.0125	0.0152
in n-butanol	0.00109	0.00121	0.00142	0.00171	0.00205	0.00246	0.00294	0.00343	0.00396	0.00452
in n-heptanol	0.000699	0.000776	0.000898	0.00106	0.0013	0.0016	0.002	0.00242	0.0029	0.00346
in n-propanol	0.00142	0.00152	0.00177	0.00214	0.00254	0.00301	0.00356	0.00418	0.00496	0.0059
in water	1.52e-05	1.9e-05	2.51e-05	3.32e-05	4.29e-05	5.62e-05	7.79e-05	0.000106	0.000145	0.000198
